The values that follow are results of earlier work, collected in patent US20120245171A1, “BENZPYRAZOLE DERIVATIVES AS INHIBITORS OF PI3 KINASES” (GLAXO GROUP LIMITED, priority 2009, published 2012).

The subject of data set [1] is neutrophils. The settings on record: for superoxide release: neutrophils.
The next data set deals with Class I PI3-kinases. To be noted: each of the Class I PI3-kinases.
In data set [2] the test system is neutrophils. The settings on record: treatment of neutrophils; Thelen et al. 1994.
In another data set the target is CK2 protein kinase (Homo sapiens, UniProt P68400).

Where two headings read alike, the source gives them in different places.

Chain of CK2 protein kinase (P68400 whole entry): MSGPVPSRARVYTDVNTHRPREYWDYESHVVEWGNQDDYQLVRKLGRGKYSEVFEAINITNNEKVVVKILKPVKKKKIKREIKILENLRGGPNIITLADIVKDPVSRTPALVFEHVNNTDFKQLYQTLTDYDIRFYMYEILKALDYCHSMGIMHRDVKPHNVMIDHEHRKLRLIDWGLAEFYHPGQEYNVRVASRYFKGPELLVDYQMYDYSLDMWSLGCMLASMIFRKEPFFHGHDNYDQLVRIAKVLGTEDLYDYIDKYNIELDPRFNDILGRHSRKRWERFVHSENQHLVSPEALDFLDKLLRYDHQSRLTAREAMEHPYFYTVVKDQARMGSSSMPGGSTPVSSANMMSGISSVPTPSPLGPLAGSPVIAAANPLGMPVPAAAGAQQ

As for `COC[C@H]1OC(=O)c2coc3c2[C@@]1(C)C1=C(C3=O)[C@@H]2CCC(=O)[C@@]2(C)C[C@H]1OC(C)=O` [wortmannin], in the data set on neutrophils [1], the neutrophil migration entry was “block” and the superoxide release entry is “block”. In addition, the IC50 in the data set on Class I PI3-kinases (read-out: IC50 against each of the various Class I PI3-kinases) is 0.001 to 0.01 µM. The “fMLP-induced respiratory burst response” value with neutrophils [2] is reported as “prevents”.
`O=c1cc(N2CCOCC2)oc2c(-c3ccccc3)cccc12` [LY294002]: in the data set on neutrophils [1], the neutrophil migration entry was “block”. For the same compound, the superoxide release entry in the data set with neutrophils [1] is given as “block”. Moreover, the IC50 in the data set with Class I PI3-kinases (Fruman et al. 1998, read-out: IC50 against each of these PI3-kinases) was 15 to 20 µM; at CK2 protein kinase, 5 to 10 µM.
